Source: PMC4562762 (Drug Design, Development and Therapy, 2015)

How the values were obtained:
[1] = Stability in mouse serum at 37°C; type: in vitro ADME
[2] = Stability in serum-free RPMI 1640 media; type: in vitro ADME; details: serum-free RPMI 1640 medium
[3] = Stability in PBS supplemented with 10% BSA; type: physicochemical; details: 37°C
[4] = system: VSVG-pseudotyped HIV-1 pNL4-3 virus expressing luciferase (HIV-1 Luc); assay: microbe, parasite or virus in culture; type: cell-based; details: Human immunodeficiency virus 1, read-out: IC50, one round HIV-1 infection
HIV-1 gag and env mRNAs = assay: HIV-1 gag and env mRNA expression in infected CEM-T cells; type: cell-based; details: CEM-T cells infected with HIV-1 Luc, 1 μM, 48 hours
HIV-1 LTR = assay: Tat-induced HIV-1 LTR and proviral pNL4-3 luciferase transcription in 293T cells; type: cell-based; details: 2 μM (legend: 1 μM)
HIV-1 LTR / NF-κB = assay: Basal HIV-1 LTR and NF-κB driven luciferase transcription in 293T cells; type: cell-based; details: 2 μM (legend: 1 μM)
[5] = system: HIV-1 reverse transcription; assay: Quantitative PCR for viral DNA; type: cell-based
HO-1 = HO-1 mRNA expression; type: cell-based; details: 1 μM, 18S RNA normalization
CEM-T cells = assay: Cell cycle analysis of CEM-T cells; type: cell-based; details: 1 μM, 24 hours
in vitro [6] = details: human
in vitro [7] = details: IC50, viability of PBMCs, trypan blue, activated PBMCs
[8] = CEM-T cells infected with HIV-1 Luc, compared with AZT

COc1cc(/C=C/C(=O)CC(=O)/C=C/c2ccc(O)c(OC)c2)ccc1O [curcumin]
half-life at 50 μM [1]: 10 h | half-life [2]: ~1 h | stabilizing effect of BSA (stability in PBS with 10% BSA) [3]: No stabilization and even a slight increase in degradation | IC50 [4]: 700 nM | expression of HIV-1 gag and env mRNAs (HIV-1 gag and env mRNAs): significantly reduced | effect on transcription from proviral pNL4-3 plasmid (HIV-1 LTR): Neither curcumin nor curcumin A at 2 μM concentrations had an effect | effect on Tat-induced HIV-1 transcription (HIV-1 LTR; HIV-1 LTR luciferase + Tat vector): Neither curcumin nor curcumin A at 2 μM concentrations had an effect | effect on NF-kB driven transcription (HIV-1 LTR / NF-κB): no effect | effect on basal HIV-1 transcription (HIV-1 LTR / NF-κB; HIV-1 LTR luciferase vector): no effect | effect on HIV-1 reverse transcription (overall) ([5]; 2 μM): inhibited HIV-1 RT | effect on early LTR (early reverse transcription) [5, 8]: inhibited early LTR similarly or better than the established HIV-1 inhibitor, AZT | effect on late LTR formation (late reverse transcription) [5, 8]: no significant effect | HO-1 expression in PBMCs (HO-1): induced HO-1 | HO-1 expression in CEM-T cells (HO-1; 24 hours): induced HO-1 | effect on cell cycle progression (CEM-T cells): no effect | IC50 (in vitro [6]): 1260 nM | IC50 (in vitro [7]): 35000 nM
